Assay results taken from patent US20020127182A1, “Paramagnetic metal ion-based macrocylic magnetization transfer contrast agents and method of use” (Board of Regents, The University of Texas System, priority 2000, published 2002).

Experiments:
Assay type in all cases: physicochemical
[1] = Proton chemical shift of bound water of Ln(1)^3+ complexes relative to bulk water (1H NMR); conditions: relative to bulk water at 0 ppm
From the text: As further illustrated in Table 1, the proton chemical shifts of bound water in these lanthanide-macrocylic complexes, δ, relative to bulk water, at 0 ppm are generally highly shifted, either more than 6 ppm downfield or upfield (i.e., ±6 ppm or more), depending upon the properties of the central lanthanide ions. At 1.5 Tesla (T), a magnetic field strength presently used by many commercial MRI scanners, the exchange limit regimes, Δω•τM, of Eu(1)^3+, Tb(1)^3+, Dy(1)^3+, and Ho(1)^3+ are all greater than 1. At higher fields, however, such as 4.7 T and 11.75 T, more lanthanide complexes have exchange limit regimes greater than 1, with Δω•τM increasing as field strength increases. Therefore, favorable MT contrast effects are available for a broad range of lanthanide-macrocylic complexes over a broad range of magnetic field strengths. […]

[2] = MT profiles (Z-profiles, CEST profiles) of Ln(1)^3+ complexes at 4.7 T; conditions: for bound water position at which saturating RF pulse is directed: bulk water at 0 ppm, aqueous 62.5 mM, neutral pH, about 22° C.
Description: In a second experiment, MT profiles, also known as Z-profiles or CEST profiles, were obtained for lanthanide-macrocylic complexes of the general formula Ln(1)^3+. FIGS. 4-7 show representative spectra in the absence of saturation (bulk water peak at 0 ppm truncated to make the bound water peaks more visible) and MT profiles for Eu(1)^3+, Pr(1)^3+, Nd(1)^3+ and Yb(1)^3+ complexes, respectively, all measured at 4.7 T. All experiments were conducted using aqueous 62.5 mM Ln(1)^3+ adjusted to neutral pH and about 22° C., using an saturation duration time of 1 s, RF power of 16 db, and a 2.5 cm surface coil. […] Among these three complexes, Eu(1)^3+, shown in FIG. 4, had the greatest effect when the saturating pulse was centered at about 50 ppm (arrow): about a 60% decrease in the magnetization of bulk water, Ms, as compared to the magnetization of bulk water in the absence of a saturating pulse, Mo. Importantly, as indicated by a Ms/Mo of about 100%, when the counter-position (i.e., −50 ppm) was saturated, there was no distortion in the bulk water signal. Of course when the saturation pulse is directed to 0 ppm (arrow) there is no signal and therefore Ms/Mo is about 0%.

[3] = Bound water lifetime τM^298 of Ln(1)^3+ complexes by fitting temperature dependent 17O NMR bound water line widths; exchange limit regime Δω•τM calculated; conditions: for τM (bound water lifetime): Ln(1)^3+ complexes, 298 K
Description: A first experiment, examined the life times at 298° K, τM^298, of water molecules bound to various lanthanide-macrocylic complexes of the present invention, and having the general formula, Ln(1)^3+, where the four pendent arms R, R′, R″ and R″′ are all ethyl-acetamidoacetate (i.e., LnDOTA-4AmCE^3+), as depicted below: [drawing 4]
(§1) Individual τM^298 values were obtained by fitting the temperature dependent ^17O NMR bound water line widths according to standard exchange theory. […] Because the bulk water ^17O resonance of Yb(1) solution was relatively narrow at all temperatures, no attempt was made to determine τM^298 for this complex based on the ^17O NMR line width data from bulk water. However, a fit to the bound-water ^1H NMR line width gave a τM^298 of 5.8 μs for Yb(1), consistent with the trend shown in FIG. 3. Moreover, ^1H NMR line width fitting gave very similar results for those systems for which the bound water is directly observable.
As further illustrated in Table 1, the proton chemical shifts of bound water in these lanthanide-macrocylic complexes, δ, relative to bulk water, at 0 ppm are generally highly shifted, either more than 6 ppm downfield or upfield (i.e., ±6 ppm or more), depending upon the properties of the central lanthanide ions. At 1.5 Tesla (T), a magnetic field strength presently used by many commercial MRI scanners, the exchange limit regimes, Δω•τM, of Eu(1)^3+, Tb(1)^3+, Dy(1)^3+, and Ho(1)^3+ are all greater than 1. At higher fields, however, such as 4.7 T and 11.75 T, more lanthanide complexes have exchange limit regimes greater than 1, with Δω•τM increasing as field strength increases. Therefore, favorable MT contrast effects are available for a broad range of lanthanide-macrocylic complexes over a broad range of magnetic field strengths.

[4] = MT MR imaging of vial phantom with Ln(1)^3+ complexes at 4.7 T; conditions: saturating bound water, 62.5 mM, neutral pH
Description: A third series of experiments was performed to examine the ability of lanthanide-macrocylic complexes of the general formula Ln(1)^3+ to enhance MRI contrast by MT. […] The inner vial contains 62.5 mM Eu(1)^3+ or Nd(1)^3+ at neutral pH, while the outer vial is pure water. T1-weighted spin-echo images (TR/TE=500/18 ms, 256×256 data matrix) were obtained at about 22° C. and a field strength of 4.7 T. MT was achieved by applying RF irradiation for 1 s, with a power of 16 db by using a 2.5 cm surface coil. […] The inner vial contains 62.5 mM Nd(1)^3+ at neutral pH, while the outer vial is pure water. The irradiation duration time was 2 s, with a power of 41 db by using a 2.5 cm surface coil.
These levels of contrast are much better than expected for diamagnetic CAs where the resonance signal of the NH or OH group undergoing chemical exchange is only a few ppm away from the resonance signal of bulk water.

[5] = τM^298 from fit to bound-water 1H NMR line width
From the text: as §1

[6] = 1H NMR spectra of Ln(9)^3+ complexes, exchangeable amide protons
From the text: For certain Ln(9)^3+ complexes, for example, with Ln equal to Yb or Tm, the bound water molecules are ^1H NMR invisible probably due to the fast exchange between the bound water and the bulk water. […] Unfortunately, the NMR signal was invisible, probably due to its fast exchange with the bulk water. However, the eight exchangeable amide protons present as two resonance peaks with equivalent intensity, at −14.5 (Ha) and −17.7 (Hb) ppm, respectively, are visible.

Structure (SMILES)	δ, proton chemical shift of bound water [1]	Δω●τM (exchange limit regime) ([3]; 1.5 T)	Δω●τM (exchange limit regime) ([3]; 4.7 T)	Δω●τM (exchange limit regime) ([3]; 11.75 T)	τM (bound water lifetime) [3]	further results
CCOC(=O)CNC(=O)CN1CCN(CC(=O)NCC(=O)OCC)CCN(CC(=O)NCC(=O)OCC)CCN(CC(=O)NCC(=O)OCC)CC1.[Pr+3] [Pr(1)^3+]	−60 ppm	0.5	1.5	3.8	20 μs	bound water position at which saturating RF pulse is directed [2]: −45 ppm
CCOC(=O)CNC(=O)CN1CCN(CC(=O)NCC(=O)OCC)CCN(CC(=O)NCC(=O)OCC)CCN(CC(=O)NCC(=O)OCC)CC1.[Nd+3] [Nd(1)^3+]	−32 ppm	1.0	3.2	8.0	80 μs	decrease in the bulk water signal in the inner vials (MT images) [4]: ~80%
CCOC(=O)CNC(=O)CN1CCN(CC(=O)NCC(=O)OCC)CCN(CC(=O)NCC(=O)OCC)CCN(CC(=O)NCC(=O)OCC)CC1.[Tb+3] [Tb(1)^3+]	−600 ppm	–	23.4	58.5	31 μs	Δω●τM (exchange limit regime) ([3]; 1.5 T, listed as Tb^3+): 7.5
CCOC(=O)CNC(=O)CN1CCN(CC(=O)NCC(=O)OCC)CCN(CC(=O)NCC(=O)OCC)CCN(CC(=O)NCC(=O)OCC)CC1.[Sm+3] [Sm(1)^3+]	−4 ppm	0.5	1.6	4.0	320 μs	–
CCOC(=O)CNC(=O)CN1CCN(CC(=O)NCC(=O)OCC)CCN(CC(=O)NCC(=O)OCC)CCN(CC(=O)NCC(=O)OCC)CC1.[Dy+3] [Dy(1)^3+]	−720 ppm	–	15.4	38.5	17 μs	Δω●τM (exchange limit regime) ([3]; 1.5 T, listed as Dy^3+): 4.9
CCOC(=O)CNC(=O)CN1CCN(CC(=O)NCC(=O)OCC)CCN(CC(=O)NCC(=O)OCC)CCN(CC(=O)NCC(=O)OCC)CC1.[Tm+3] [Tm(1)^3+]	500 ppm	0.6	1.9	4.7	3 μs	–
CCOC(=O)CNC(=O)CN1CCN(CC(=O)NCC(=O)OCC)CCN(CC(=O)NCC(=O)OCC)CCN(CC(=O)NCC(=O)OCC)CC1.[Yb+3] [Yb(1)^3+]	200 ppm	0.2	0.5	1.9	3 μs	τM^298 of bound water [5]: 5.8 μs
CCOC(=O)CNC(=O)CN1CCN(CC(=O)NCC(=O)OCC)CCN(CC(=O)NCC(=O)OCC)CCN(CC(=O)NCC(=O)OCC)CC1.[Er+3] [Er(1)^3+]	200 ppm	0.7	2.3	5.7	9 μs	–
CCOC(=O)CNC(=O)CN1CCN(CC(=O)NCC(=O)OCC)CCN(CC(=O)NCC(=O)OCC)CCN(CC(=O)NCC(=O)OCC)CC1.[Ho+3] [Ho(1)^3+]	−360 ppm	–	8.6	21.5	19 μs	Δω●τM (exchange limit regime) ([3]; 1.5 T, listed as Ho^3+): 2.8
CCOC(=O)CNC(=O)CN1CCN(CC(=O)NCC(=O)OCC)CCN(CC(=O)NCC(=O)OCC)CCN(CC(=O)NCC(=O)OCC)CC1.[Eu+3] [Eu(1)^3+]	50 ppm	–	24.0	60.0	382 μs	bound water position at which saturating RF pulse is directed [2]: +50 ppm; decrease in the magnetization of bulk water, Ms, compared to Mo ([2]; saturating pulse at about 50 ppm, 62.5 mM, 1 s, 16 db): ~60%; Ms/Mo when counter-position saturated ([2]; saturation at −50 ppm, 62.5 mM): about 100%; Δω●τM (exchange limit regime) ([3]; 1.5 T, listed as Eu^3+): 7.7; decrease in the bulk water signal in the inner vials (MT images) [4]: ~80%
NC(=O)CN1CCN(CC(N)=O)CCN(CC(N)=O)CCN(CC(N)=O)CC1.[Tm+3] [Tm(9)^3+]	–	–	–	–	–	chemical shift of amide protons, first set (Ha) [6]: −42 ppm; chemical shift of amide protons, second set (Hb) [6]: −52 ppm
